In a compilation of properties of binary mixtures (doi:10.1016/j.molliq.2012.02.004):

Assay: xn = mol fraction of the nth substance listed
Conditions: 101 kPa

CCCCCC[n+]1ccn(C)c1.F[B-](F)(F)F + CC(C)O
viscosity [mPa·s]
Conditions | x2 = 0 | x2 = 0.1493 | x2 = 0.2289 | x2 = 0.2992 | x2 = 0.3752 | x2 = 0.4942 | x2 = 0.5845 | x2 = 0.7067 | x2 = 0.762 | x2 = 0.9165
293.15 K | 230 | 113 | 78 | 57.1 | 41 | 24.9 | 16.8 | 10.05 | 7.82 | –
303.15 K | 130 | – | 48.2 | 36.1 | – | 16.9 | – | – | – | 2.65
313.15 K | 78 | 42.6 | 31.7 | – | 18.8 | 12.2 | 8.53 | 5.15 | – | 1.96
323.15 K | – | 28.1 | – | – | 14.6 | 9.3 | 6.62 | 3.95 | 3.04 | 1.5
333.15 K | – | – | 16.3 | 13.2 | – | 7.04 | 5.06 | 3.05 | – | 1.02

CC(C)O + CCCCCC[n+]1ccn(C)c1.F[B-](F)(F)F
x1 = 1
Conditions | viscosity [mPa·s]
293.15 K | 2.36
303.15 K | 1.77
313.15 K | 1.33
323.15 K | 1.01
